# Data reported in patent US20230416275A1, “MODULATORS OF CYSTIC FIBROSIS TRANSMEMBRANE CONDUCTANCE REGULATOR” (VERTEX PHARMACEUTICALS INCORPORATED, priority 2020, published 2023).
# Like-named read-outs stand apart in the source and are kept apart here.
# Columns and labels:
# F508del in NIH 3T3 cells = target: T1, F508del in NIH 3T3 cells (Homo sapiens, UniProt P13569, DEL508-508); assay: 3T3 assay: membrane potential optical assay for F508del correction; assay type: cell-based, mouse; settings: for EC50 / 3T3 Max Activity (%): F508del NIH 3T3 cells; for EC50: compound incubation 18-24 hours at 37° C., forskolin activation; for Emax: NIH3T3, F508del NIH 3T3 cells, read-out: 3T3 Max Activity (%); for Emax / 3T3 Max Activity (%): efficacy compared to lumacaftor in combination with acutely added 300 nM Ivacaftor
# T1 construct: expressed in transfected cells
# T1 sequence (P13569 with tags, fused parts or gaps DEL508-508): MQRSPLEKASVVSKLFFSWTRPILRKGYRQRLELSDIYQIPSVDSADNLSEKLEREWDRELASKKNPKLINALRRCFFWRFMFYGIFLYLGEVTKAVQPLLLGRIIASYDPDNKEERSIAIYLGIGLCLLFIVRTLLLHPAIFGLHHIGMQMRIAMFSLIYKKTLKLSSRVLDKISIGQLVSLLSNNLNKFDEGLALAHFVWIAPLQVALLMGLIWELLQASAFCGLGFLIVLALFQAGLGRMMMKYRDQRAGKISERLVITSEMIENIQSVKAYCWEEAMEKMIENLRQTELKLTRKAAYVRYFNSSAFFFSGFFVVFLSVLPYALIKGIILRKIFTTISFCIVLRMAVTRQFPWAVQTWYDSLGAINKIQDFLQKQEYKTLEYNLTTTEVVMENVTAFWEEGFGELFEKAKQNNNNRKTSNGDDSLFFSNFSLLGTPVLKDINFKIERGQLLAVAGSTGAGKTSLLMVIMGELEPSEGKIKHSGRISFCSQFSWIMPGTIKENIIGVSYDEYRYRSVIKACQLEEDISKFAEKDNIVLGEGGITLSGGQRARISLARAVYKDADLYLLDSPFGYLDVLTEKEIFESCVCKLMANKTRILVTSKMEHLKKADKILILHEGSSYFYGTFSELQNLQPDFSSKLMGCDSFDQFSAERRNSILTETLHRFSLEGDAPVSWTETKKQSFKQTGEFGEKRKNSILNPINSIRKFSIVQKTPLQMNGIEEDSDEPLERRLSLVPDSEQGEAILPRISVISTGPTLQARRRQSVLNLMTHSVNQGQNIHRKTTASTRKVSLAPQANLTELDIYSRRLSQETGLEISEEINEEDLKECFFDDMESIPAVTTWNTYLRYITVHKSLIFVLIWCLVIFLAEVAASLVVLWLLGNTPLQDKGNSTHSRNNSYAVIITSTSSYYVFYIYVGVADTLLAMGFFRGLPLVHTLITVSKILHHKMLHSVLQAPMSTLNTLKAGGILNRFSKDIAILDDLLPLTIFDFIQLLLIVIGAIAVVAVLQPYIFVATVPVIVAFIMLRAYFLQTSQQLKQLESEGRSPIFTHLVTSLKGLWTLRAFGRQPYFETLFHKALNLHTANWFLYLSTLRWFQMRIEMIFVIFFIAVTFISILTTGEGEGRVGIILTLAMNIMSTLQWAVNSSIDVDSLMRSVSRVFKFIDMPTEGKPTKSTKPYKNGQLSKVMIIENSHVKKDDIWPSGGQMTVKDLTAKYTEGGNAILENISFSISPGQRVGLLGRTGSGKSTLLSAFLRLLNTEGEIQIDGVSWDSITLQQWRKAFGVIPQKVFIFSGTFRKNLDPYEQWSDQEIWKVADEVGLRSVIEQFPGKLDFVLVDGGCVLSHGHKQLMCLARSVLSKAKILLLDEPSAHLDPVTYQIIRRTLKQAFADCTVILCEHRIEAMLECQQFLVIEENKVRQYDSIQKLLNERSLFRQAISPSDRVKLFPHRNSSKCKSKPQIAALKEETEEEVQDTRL
# Procedure, shortened: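 NIH3T3 mouse fibroblasts stably expressing F508del incubated with corrector compounds at a range of concentrations for 16-24 h at 37 °C, then loaded with voltage-sensing redistribution dye. Single addition of forskolin with Cl− gradient (chloride-free gluconate bath vs. NaCl bath, pH 7.4); membrane potential change read by fluorescence on FLIPR.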
# [1] = target: CFTR-mediated chloride transport in human intestinal epithelial enteroid cells (Homo sapiens, UniProt P13569); assay: Membrane potential dye, Enteroid Assay A; assay type: cell-based; settings: for Ent. A Max Activity (%): % of chloride transport of triple combination control (3 μM N-[(6-amino-2-pyridyl)sulfonyl]-6-(3-fluoro-5-isobutoxy-phenyl)-2-[(4S)-2,2,4-trimethylpyrrolidin-1-yl]pyridine-3-carboxamide, 3 μM tezacaftor, 300 nM acute ivacaftor); for EC50: enteroid cells, 18-24 hours incubation, acute 10 μM forskolin and 300 nM ivacaftor, read-out: Ent. A EC50
# CFTR-mediated chloride transport in human intestinal epithelial enteroid cells, sequence (P13569 with tags, fused parts or gaps DEL508-508): as above
# Procedure, shortened: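 Enteroids seeded at 5000 cells/well were exposed to test compound in IEMM for 18-24 h at 37 °C, then loaded with methyl oxonol membrane potential dye. Chloride transport was triggered in chloride-free buffer with 10 μM forskolin, 100 μM IBMX and 300 nM Compound III, read by fluorescence for 15 min and expressed as % of a triple-combination control.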
Compound,EC50 (F508del in NIH 3T3 cells; read-out: 3T3 EC50) [µM],Emax (F508del in NIH 3T3 cells) [%],Ent. A Max Activity (%) [1],EC50 [1] [µM],other results
Cc1cccc(C)c1-c1cc2nc(n1)NS(=O)(=O)c1cccc(n1)NC(=O)C1CC(CN(C(=O)OC(C)(C)C)C1)O2 (centres unmarked),–,–,–,–,"ring closure, yield after HPLC (from Cc1cccc(C)c1-c1cc(OC2CC(C(=O)Oc3c(F)c(F)c(F)c(F)c3F)CN(C(=O)OC(C)(C)C)C2)nc(NS(=O)(=O)c2cccc(N)n2)n1, amide bond, 14-membered ring, none (thermal, OPfp ester), NMP, 10.1 mM, 140.0 °C, 5.0 h, 5 steps): 1%"
Cc1ccccc1-c1cc2nc(n1)NS(=O)(=O)c1cccc(c1)Nc1cccc(c1)O2,–,–,–,–,"ring closure, yield after HPLC (other bond, 13-membered ring, CuI/pyrrole-2-carboxylic acid/K3PO4, DMSO, 65.2 mM, 3 steps): 2%"
"Cc1cccc(C)c1-c1cc2nc(n1)NS(=O)(=O)c1cccc(c1)NC(=O)C1CCCC(C1)O2 (mixture of isomers) [Compound 67, 5-(2,6-Dimethylphenyl)-9,9-dioxo-2-oxa-9λ^6-thia-6,8,15,23-tetraazatetracyclo[15.3.1.13,7.110,14]tricosa-3,5,7(23),10(22),11,13-hexaen-16-one]",< 1,> 60,–,–,"ring closure, yield after HPLC (amide bond, 14-membered ring, HATU/DIEA, DMF, 100.0 mM, 3 steps): 20%"
Cc1cccc(C)c1-c1cc2nc(n1)NS(=O)(=O)c1cccc(c1)NC(=O)[C@@H]1C[C@@H](CN(C(=O)C(C)(C)C)C1)O2 [Compound 46],< 1,> 60,+++ (+++ is >60%),1 to 3,–
Cc1cccc(C)c1-c1cc2nc(n1)NS(=O)(=O)c1cccc(c1)NC(=O)[C@H]1CNC[C@@H](C1)O2 [Compound 47],–,30 to 60,+ (+ is <30%),–,–
Cc1cccc(C)c1-c1cc2nc(n1)NS(=O)(=O)c1cccc(c1)NC(=O)[C@@H]1CNC[C@H](C1)O2 [Compound 48],1 to 3,> 60,++ (++ is 30-60%),–,–
Cc1cccc(C)c1-c1cc2nc(n1)NS(=O)(=O)c1cccc(c1)NC(=O)[C@H]1CNC[C@H](C1)O2 [Compound 49],1 to 3,> 60,+ (+ is <30%),–,–
Cc1cccc(C)c1-c1cc2nc(n1)NS(=O)(=O)c1cccc(c1)NC(=O)[C@@H]1CNC[C@@H](C1)O2 [Compound 50],–,< 30,+ (+ is <30%),–,–
Cc1cccc(C)c1-c1cc2nc(n1)NS(=O)(=O)c1cccc(c1)NC(=O)C1CNCC(C1)O2 (centres unmarked) [Compound 51],3 to 30,–,++ (++ is 30-60%),3 to 30,3T3 Max Activity (%) (F508del in NIH 3T3 cells): +++ (+++ is >60%)
Cc1cccc(C)c1-c1cc2nc(n1)NS(=O)(=O)c1cccc(c1)NC(=O)C1CNCC(C1)O2 (centres unmarked) [Compound 52],–,–,+ (+ is <30%),3 to 30,3T3 Max Activity (%) (F508del in NIH 3T3 cells): + (+ is <30%)
"Cc1cccc(C)c1-c1cc2nc(n1)NS(=O)(=O)c1cccc(c1)NC(=O)c1cccc(c1)O2 [Compound 53, 5-(2,6-Dimethylphenyl)-9,9-dioxo-2-oxa-9λ^6-thia-6,8,15,23-tetraazatetracyclo[15.3.1.13,7.110,14]tricosa-1(20),3,5,7(23),10(22),11,13,17(21),18-nonaen-16-one]",< 1,> 60,+++ (+++ is >60%),3 to 30,–
"Cc1ccccc1-c1cc2nc(n1)NS(=O)(=O)c1cccc(c1)NC(=O)c1cccc(c1)O2 [Compound 54, 5-(o-Tolyl)-9,9-dioxo-2-oxa-9λ^6-thia-6,8,15,23-tetraazatetracyclo[15.3.1.13,7.110,14]tricosa-1(20),3,5,7(23),10(22),11,13,17(21),18-nonaen-16-one]",< 1,> 60,–,–,"ring closure, yield after HPLC (from Cc1ccccc1-c1cc(Oc2cccc(C(=O)O)c2)nc(NS(=O)(=O)c2cccc(N)c2)n1, amide bond, 14-membered ring, HATU/DIEA, DMF, 81.2 mM, 0.33 h): 45%"
"Cc1ccc2cc1Oc1cc(-c3c(C)cccc3C)nc(n1)NS(=O)(=O)c1cccc(c1)NC2=O [Compound 57, 5-(2,6-Dimethylphenyl)-20-methyl-2-oxa-9λ^6-thia-6,8,15,23-tetraazatetracyclo[15.3.1.13,7.110,14]tricosa-1(21),3(23),4,6,10,12,14(22),17,19-nonaene-9,9,16-trione]",< 1,> 60,++ (++ is 30-60%),< 1,–
"O=C1Nc2cccc(c2)S(=O)(=O)Nc2nc(cc(-c3cccc4ccccc34)n2)Oc2cccc1c2 [Compound 58, 5-(1-Naphthyl)-9,9-dioxo-2-oxa-9λ^6-thia-6,8,15,23-tetraazatetracyclo[15.3.1.13,7.110,14]tricosa-1(20),3,5,7(23),10(22),11,13,17(21),18-nonaen-16-one]",< 1,> 60,++ (++ is 30-60%),1 to 3,–
"Cc1ccccc1-c1cc2nc(n1)NS(=O)(=O)c1cccc(c1)NCc1cccc(c1)O2 [Compound 62, 5-(o-Tolyl)-2-oxa-9λ^6-thia-6,8,15,23-tetraazatetracyclo[15.3.1.13,7.110,14]tricosa-1(20),3,5,7(23),10(22),11,13,17(21),18-nonaene 9,9-dioxide]",< 1,–,–,–,"ring closure, yield after HPLC (amine bond, 14-membered ring, NaBH(OAc)3/TFA, AcOH, 3 steps): 1%"
"Cc1ccccc1-c1cc2nc(n1)NS(=O)(=O)c1cccc(c1)NC(=O)c1ccc(cc1)O2 [Compound 63, 5-(o-Tolyl)-9,9-dioxo-2-oxa-9λ^6-thia-6,8,15,23-tetraazatetracyclo[15.2.2.13,7.110,14]tricosa-1(19),3,5,7(23),10(22),11,13,17,20-nonaen-16-one]",–,–,–,–,"ring closure, yield after HPLC (amide bond, 15-membered ring, HATU/DIEA, DMF, 3 steps): 1%; EC50 (F508del in NIH 3T3 cells; 3T3 EC50 (μM)): 1 to 3 µM"
"Cc1cccc(C)c1-c1cc2nc(n1)NS(=O)(=O)c1cccc(c1)NC(=O)CCCCO2 [Compound 72, 6-(2,6-Dimethylphenyl)-2,2-dioxo-9-oxa-2λ^6-thia-3,5,15,21-tetrazatricyclo[14.3.1.14,8]henicosa-1(20),4(21),5,7,16,18-hexaen-14-one]",< 1,> 60,–,–,"ring closure, yield after HPLC (amide bond, 15-membered ring, HATU/DIEA, DMF, 5 steps): 3%"
"Cc1cccc(C)c1-c1cc2nc(c1)Oc1cccc(c1)C(=O)Nc1cccc(c1)S(=O)(=O)N2 [Compound 76, 5-(2,6-Dimethylphenyl)-9,9-dioxo-2-oxa-9λ^6-thia-8,15,23-triazatetracyclo[15.3.1.13,7.110,14]tricosa-1(21),3(23),4,6,10,12,14(22),17,19-nonaen-16-one]",–,< 30,+ (+ is <30%),–,–
CC(C)c1ccccc1-c1cc2nc(n1)NS(=O)(=O)c1cccc(c1)NC(=O)c1cccc(c1)O2 [Compound 81],< 1,> 60,++ (++ is 30-60%),3 to 30,–
Cc1cccc(C)c1-c1cc2nc(n1)NS(=O)(=O)c1cccc(c1)NC(=O)CCc1cccc(c1)O2 [Compound 108],< 1,> 60,+++ (+++ is >60%),3 to 30,–
Cc1cccc(C)c1-c1cc2nc(n1)NS(=O)(=O)c1cccc(c1)NC(=O)Cc1cccc(c1)O2 [Compound 109],1 to 3,> 60,++ (++ is 30-60%),3 to 30,–
Cc1cc2cc(c1)C(=O)Nc1cccc(c1)S(=O)(=O)Nc1nc(cc(-c3c(C)cccc3C)n1)O2 [Compound 110],< 1,> 60,++ (++ is 30-60%),1 to 3,–
Cc1ccc2cc1C(=O)Nc1cccc(c1)S(=O)(=O)Nc1nc(cc(-c3c(C)cccc3C)n1)O2 [Compound 111],< 1,> 60,++ (++ is 30-60%),3 to 30,–
Cc1cccc(C)c1-c1cc2nc(n1)NS(=O)(=O)c1cccc(c1)NC(=O)c1ccc(Cl)c(c1)O2 [Compound 117],< 1,> 60,+++ (+++ is >60%),1 to 3,–
Cc1cccc(C)c1-c1cc2nc(n1)NS(=O)(=O)c1cccc(c1)NC(=O)c1cc(Cl)cc(c1)O2 [Compound 118],< 1,> 60,+++ (+++ is >60%),1 to 3,–
Cc1cccc(C)c1-c1cc2nc(n1)NS(=O)(=O)c1cccc(c1)NC(=O)C1CC(CN(C(=O)OC(C)(C)C)C1)O2 (centres unmarked) [Compound 123],< 1,> 60,++ (++ is 30-60%),< 1,–
Cc1cccc(C)c1-c1cc2nc(n1)NS(=O)(=O)c1cccc(c1)NC(=O)C1CC(CN(C(=O)OC(C)(C)C)C1)O2 (centres unmarked) [Compound 124],1 to 3,–,++ (++ is 30-60%),3 to 30,3T3 Max Activity (%) (F508del in NIH 3T3 cells): +++ (+++ is >60%)
